The record followed here is patent USRE42890E1, “Furazanobenzimidazoles” (Basilea Pharmaceutica AG, priority 2003, dated 2011).

pIC50: −log10 of the molar value.

One assay has as its system Jurkat. The experiment in a line: MTS proliferation assay, Jurkat. In kind it is cell-based, human. The conditions noted are these: 72 h incubation, read-out: MTS proliferation assay IC 50 Jurkat. The procedure, abridged: (§1)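 Cells were seeded 24 h before treatment and exposed to compound at 10, 3, 1 and 0.3 μM final for 72 h at 37 °C, 7.5% CO2 in RPMI-1640 with 5% or 10% FCS. Viability was read by MTS reagent (3 h) as absorbance at 492 nm.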
In general terms: Tetrazolium dyes change colour on reduction, which living cells bring about.
With `Nc1nonc1-c1nc2ccccc2n1CC(=NO)c1cccc(Cl)c1` (mixture of isomers) [Example 36], the pIC50 is 7.00 to 8.00.

In the case of `Nc1nonc1-c1nc2ccccc2n1CC(=O)/C=C/c1ccc(Cl)cc1` [Example 118], the pIC50 was less than 6.00.

Take `Nc1nonc1-c1nc2ccccc2n1COc1ccc(Cl)c(Cl)c1` [Example 92]: the pIC50 is 7.00 to 8.00.

The subject of the next assay is Jily. The experiment in a line: MTS proliferation assay, Jily. Format: cell-based. The conditions noted are these: 72 h incubation, read-out: MTS proliferation assay IC 50 Jily. The procedure, abridged: (§2)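 Cells in RPMI-1640 with 5% or 10% FCS, 2-mercaptoethanol and glutamine were seeded 24 h before treatment with compound at final 10, 3, 1 and 0.3 μM. After 72 h at 37° C and 7.5% CO2, MTS reagent was added for 3 h and absorbance read at 492 nm.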
As to `Nc1nonc1-c1nc2ccccc2n1CC(=NO)c1cccc(Cl)c1` (mixture of isomers) [Example 36], the pIC50 was 7.00 to 8.00.

With `Nc1nonc1-c1nc2ccccc2n1CC(=O)/C=C/c1ccc(Cl)cc1` [Example 118], the pIC50 was less than 6.00.

With `Nc1nonc1-c1nc2ccccc2n1COc1ccc(Cl)c(Cl)c1` [Example 92], the pIC50 was 7.00 to 8.00.

In another assay the test system is HT1080. The assay is described as follows: MTS proliferation assay, HT1080. Format: cell-based, human. The conditions noted are these: HT1080, 72 h incubation; read-out: MTS proliferation assay IC 50 HT1080. The procedure, abridged:
as §1
Regarding `Nc1nonc1-c1nc2ccccc2n1CC(=NO)c1cccc(Cl)c1` (mixture of isomers) [Example 36], the pIC50 is 6.00 to 7.00.

For `Nc1nonc1-c1nc2ccccc2n1CC(=O)/C=C/c1ccc(Cl)cc1` [Example 118], the pIC50 is less than 6.00.

`Nc1nonc1-c1nc2ccccc2n1COc1ccc(Cl)c(Cl)c1` [Example 92]: the pIC50 is 7.00 to 8.00.

The next assay relates to HeLa. The assay is described as follows: MTS proliferation assay, HeLa. Format: cell-based, human. The conditions noted are these: 72 h incubation, read-out: MTS proliferation assay IC 50 HeLa. An outline of the steps:
as §1
In the case of `Nc1nonc1-c1nc2ccccc2n1CC(=NO)c1cccc(Cl)c1` (mixture of isomers) [Example 36], the pIC50 is 7.00 to 8.00.

`Nc1nonc1-c1nc2ccccc2n1CC(=O)/C=C/c1ccc(Cl)cc1` [Example 118]: the pIC50 was less than 6.00.

Turning to `Nc1nonc1-c1nc2ccccc2n1COc1ccc(Cl)c(Cl)c1` [Example 92], the pIC50 is 7.00 to 8.00.

The test system of a further assay is MRC5. The assay is described as follows: MTS proliferation assay, MRC5. Format: cell-based. The conditions noted are these: MRC5, 72 h incubation; read-out: MTS proliferation assay IC 50 MRC5. An outline of the steps: as §2
With `Nc1nonc1-c1nc2ccccc2n1CC(=NO)c1cccc(Cl)c1` (mixture of isomers) [Example 36], the pIC50 is 6.00 to 7.00.

In the case of `Nc1nonc1-c1nc2ccccc2n1CC(=O)/C=C/c1ccc(Cl)cc1` [Example 118], the pIC50 is less than 6.00.

For `Nc1nonc1-c1nc2ccccc2n1COc1ccc(Cl)c(Cl)c1` [Example 92], the pIC50 is 6.00 to 7.00.

The next assay deals with adherent cells or suspension cells. The assay is described as follows: Hoechst 33342 nuclear staining (fraction of apoptotic nuclei). More on the design: key: 0 relating to no activity; 1 relating to weak activity comprising less than 70% of the cells; score 2 relating to strong activity comprising more than 70% of the cells. In kind it is cell-based. The settings on record: H460, conc 0.01 μm.
For the compound `Nc1nonc1-c1nc2ccccc2n1CC(=NO)c1cccc(Cl)c1` (mixture of isomers) [Example 36], the “Hoechst 33342 nuclear staining score” value is listed as 0.

On to `Nc1nonc1-c1nc2ccccc2n1CC(=O)/C=C/c1ccc(Cl)cc1` [Example 118], for which the “Hoechst 33342 nuclear staining score” value was 0.

`Nc1nonc1-c1nc2ccccc2n1COc1ccc(Cl)c(Cl)c1` [Example 92]: the “Hoechst 33342 nuclear staining score” value is given as 0.

The same assay, now with this note: H460, conc 0.1 μm.
For `Nc1nonc1-c1nc2ccccc2n1CC(=NO)c1cccc(Cl)c1` (mixture of isomers) [Example 36], the “Hoechst 33342 nuclear staining score” value is on record as 0.

In the case of `Nc1nonc1-c1nc2ccccc2n1CC(=O)/C=C/c1ccc(Cl)cc1` [Example 118], the “Hoechst 33342 nuclear staining score” value came to 0.

On to `Nc1nonc1-c1nc2ccccc2n1COc1ccc(Cl)c(Cl)c1` [Example 92], for which the “Hoechst 33342 nuclear staining score” value is reported as 2 (score 2 relating to strong activity comprising more than 70% of the cells).

Staying with this assay, now noted: H460, conc 1 μm.
With `Nc1nonc1-c1nc2ccccc2n1CC(=NO)c1cccc(Cl)c1` (mixture of isomers) [Example 36], the “Hoechst 33342 nuclear staining score” value is listed as 0.

For the compound `Nc1nonc1-c1nc2ccccc2n1CC(=O)/C=C/c1ccc(Cl)cc1` [Example 118], the “Hoechst 33342 nuclear staining score” value came out at 0.

With `Nc1nonc1-c1nc2ccccc2n1COc1ccc(Cl)c(Cl)c1` [Example 92], the “Hoechst 33342 nuclear staining score” value was 2 (score 2 relating to strong activity comprising more than 70% of the cells).

The same assay, now with this note: HeLa, conc 0.01 μm.
Turning to `Nc1nonc1-c1nc2ccccc2n1CC(=NO)c1cccc(Cl)c1` (mixture of isomers) [Example 36], the “Hoechst 33342 nuclear staining score” value amounted to 0.

Consider `Nc1nonc1-c1nc2ccccc2n1CC(=O)/C=C/c1ccc(Cl)cc1` [Example 118], for which the “Hoechst 33342 nuclear staining score” value is 0.

With `Nc1nonc1-c1nc2ccccc2n1COc1ccc(Cl)c(Cl)c1` [Example 92], the “Hoechst 33342 nuclear staining score” value is 0.

The assay is the same for the next values; noted with them: HeLa, conc 0.1 μm.
For `Nc1nonc1-c1nc2ccccc2n1CC(=NO)c1cccc(Cl)c1` (mixture of isomers) [Example 36], the “Hoechst 33342 nuclear staining score” value stood at 0.

In the case of `Nc1nonc1-c1nc2ccccc2n1CC(=O)/C=C/c1ccc(Cl)cc1` [Example 118], the “Hoechst 33342 nuclear staining score” value is given as 0.

Take `Nc1nonc1-c1nc2ccccc2n1COc1ccc(Cl)c(Cl)c1` [Example 92]: the “Hoechst 33342 nuclear staining score” value is recorded as 2 (score 2 relating to strong activity comprising more than 70% of the cells).

The same assay, now with this note: HeLa, conc 1 μm.
Take `Nc1nonc1-c1nc2ccccc2n1CC(=NO)c1cccc(Cl)c1` (mixture of isomers) [Example 36]: the “Hoechst 33342 nuclear staining score” value is listed as 0.

In the case of `Nc1nonc1-c1nc2ccccc2n1CC(=O)/C=C/c1ccc(Cl)cc1` [Example 118], the “Hoechst 33342 nuclear staining score” value was 0.

As to `Nc1nonc1-c1nc2ccccc2n1COc1ccc(Cl)c(Cl)c1` [Example 92], the “Hoechst 33342 nuclear staining score” value is recorded as 2 (score 2 relating to strong activity comprising more than 70% of the cells).

Staying with this assay, now noted: Jily, conc 0.01 μm.
Turning to `Nc1nonc1-c1nc2ccccc2n1CC(=NO)c1cccc(Cl)c1` (mixture of isomers) [Example 36], the “Hoechst 33342 nuclear staining score” value is on record as 0.

With `Nc1nonc1-c1nc2ccccc2n1CC(=O)/C=C/c1ccc(Cl)cc1` [Example 118], the “Hoechst 33342 nuclear staining score” value is 0.

As to `Nc1nonc1-c1nc2ccccc2n1COc1ccc(Cl)c(Cl)c1` [Example 92], the “Hoechst 33342 nuclear staining score” value was found to be 0.

Still in this assay, the particulars now being: Jily, conc 0.1 μm.
For the compound `Nc1nonc1-c1nc2ccccc2n1CC(=NO)c1cccc(Cl)c1` (mixture of isomers) [Example 36], the “Hoechst 33342 nuclear staining score” value worked out at 0.

With `Nc1nonc1-c1nc2ccccc2n1CC(=O)/C=C/c1ccc(Cl)cc1` [Example 118], the “Hoechst 33342 nuclear staining score” value stood at 0.

Turning to `Nc1nonc1-c1nc2ccccc2n1COc1ccc(Cl)c(Cl)c1` [Example 92], the “Hoechst 33342 nuclear staining score” value was 2 (score 2 relating to strong activity comprising more than 70% of the cells).

Still in this assay, the particulars now being: Jily, conc 1 μm.
`Nc1nonc1-c1nc2ccccc2n1CC(=NO)c1cccc(Cl)c1` (mixture of isomers) [Example 36]: the “Hoechst 33342 nuclear staining score” value stood at 0.

In the case of `Nc1nonc1-c1nc2ccccc2n1CC(=O)/C=C/c1ccc(Cl)cc1` [Example 118], the “Hoechst 33342 nuclear staining score” value was 1 (1 relating to weak activity comprising less than 70% of the cells).

Consider `Nc1nonc1-c1nc2ccccc2n1COc1ccc(Cl)c(Cl)c1` [Example 92], for which the “Hoechst 33342 nuclear staining score” value was 2 (score 2 relating to strong activity comprising more than 70% of the cells).

The same assay, now with this note: Jurkat, conc 0.01 μm.
As for `Nc1nonc1-c1nc2ccccc2n1CC(=O)/C=C/c1ccc(Cl)cc1` [Example 118], the “Hoechst 33342 nuclear staining score” value is reported as 0.

In the case of `Nc1nonc1-c1nc2ccccc2n1COc1ccc(Cl)c(Cl)c1` [Example 92], the “Hoechst 33342 nuclear staining score” value came out at 0.

Staying with this assay, now noted: Jurkat, conc 0.1 μm.
Take `Nc1nonc1-c1nc2ccccc2n1CC(=O)/C=C/c1ccc(Cl)cc1` [Example 118]: the “Hoechst 33342 nuclear staining score” value amounted to 0.

Consider `Nc1nonc1-c1nc2ccccc2n1COc1ccc(Cl)c(Cl)c1` [Example 92], for which the “Hoechst 33342 nuclear staining score” value is 2 (score 2 relating to strong activity comprising more than 70% of the cells).

The same assay, now with this note: Jurkat, conc 1 μm.
As for `Nc1nonc1-c1nc2ccccc2n1CC(=O)/C=C/c1ccc(Cl)cc1` [Example 118], the “Hoechst 33342 nuclear staining score” value is given as 0.

For the compound `Nc1nonc1-c1nc2ccccc2n1COc1ccc(Cl)c(Cl)c1` [Example 92], the “Hoechst 33342 nuclear staining score” value is listed as 2 (score 2 relating to strong activity comprising more than 70% of the cells).

The assay is the same for the next values; noted with them: MRC5, conc 0.01 μm.
For the compound `Nc1nonc1-c1nc2ccccc2n1CC(=NO)c1cccc(Cl)c1` (mixture of isomers) [Example 36], the “Hoechst 33342 nuclear staining score” value was 0.

Turning to `Nc1nonc1-c1nc2ccccc2n1CC(=O)/C=C/c1ccc(Cl)cc1` [Example 118], the “Hoechst 33342 nuclear staining score” value was 0.

Regarding `Nc1nonc1-c1nc2ccccc2n1COc1ccc(Cl)c(Cl)c1` [Example 92], the “Hoechst 33342 nuclear staining score” value is recorded as 0.

The same assay, now with this note: MRC5, conc 0.1 μm.
Turning to `Nc1nonc1-c1nc2ccccc2n1CC(=NO)c1cccc(Cl)c1` (mixture of isomers) [Example 36], the “Hoechst 33342 nuclear staining score” value came out at 0.

`Nc1nonc1-c1nc2ccccc2n1CC(=O)/C=C/c1ccc(Cl)cc1` [Example 118]: the “Hoechst 33342 nuclear staining score” value came to 0.

As for `Nc1nonc1-c1nc2ccccc2n1COc1ccc(Cl)c(Cl)c1` [Example 92], the “Hoechst 33342 nuclear staining score” value is 2 (score 2 relating to strong activity comprising more than 70% of the cells).

Still in this assay, the particulars now being: MRC5, conc 1 μm.
As for `Nc1nonc1-c1nc2ccccc2n1CC(=NO)c1cccc(Cl)c1` (mixture of isomers) [Example 36], the “Hoechst 33342 nuclear staining score” value is recorded as 0.

For `Nc1nonc1-c1nc2ccccc2n1CC(=O)/C=C/c1ccc(Cl)cc1` [Example 118], the “Hoechst 33342 nuclear staining score” value is on record as 0.

On to `Nc1nonc1-c1nc2ccccc2n1COc1ccc(Cl)c(Cl)c1` [Example 92], for which the “Hoechst 33342 nuclear staining score” value was 2 (score 2 relating to strong activity comprising more than 70% of the cells).

Still in this assay, the particulars now being: PBLs, conc 0.01 μm.
Regarding `Nc1nonc1-c1nc2ccccc2n1CC(=NO)c1cccc(Cl)c1` (mixture of isomers) [Example 36], the “Hoechst 33342 nuclear staining score” value was found to be 0.

Take `Nc1nonc1-c1nc2ccccc2n1CC(=O)/C=C/c1ccc(Cl)cc1` [Example 118]: the “Hoechst 33342 nuclear staining score” value worked out at 0.

For the compound `Nc1nonc1-c1nc2ccccc2n1COc1ccc(Cl)c(Cl)c1` [Example 92], the “Hoechst 33342 nuclear staining score” value is given as 0.

The same assay, now with this note: PBLs, conc 0.1 μm.
With `Nc1nonc1-c1nc2ccccc2n1CC(=NO)c1cccc(Cl)c1` (mixture of isomers) [Example 36], the “Hoechst 33342 nuclear staining score” value is listed as 0.

For `Nc1nonc1-c1nc2ccccc2n1CC(=O)/C=C/c1ccc(Cl)cc1` [Example 118], the “Hoechst 33342 nuclear staining score” value came out at 0.

For `Nc1nonc1-c1nc2ccccc2n1COc1ccc(Cl)c(Cl)c1` [Example 92], the “Hoechst 33342 nuclear staining score” value was 0.

Staying with this assay, now noted: PBLs, conc 1 μm.
Consider `Nc1nonc1-c1nc2ccccc2n1CC(=NO)c1cccc(Cl)c1` (mixture of isomers) [Example 36], for which the “Hoechst 33342 nuclear staining score” value is listed as 0.

Turning to `Nc1nonc1-c1nc2ccccc2n1CC(=O)/C=C/c1ccc(Cl)cc1` [Example 118], the “Hoechst 33342 nuclear staining score” value is recorded as 0.

As for `Nc1nonc1-c1nc2ccccc2n1COc1ccc(Cl)c(Cl)c1` [Example 92], the “Hoechst 33342 nuclear staining score” value was found to be 0.
